Experimental data from patent US20060210658A1, “Processes for obtaining (-)-guaiol and the use thereof” (priority 2000, published 2006).

Experiments:
Experiment in all cases: Antimicrobial action test (MIC)
Assay type in all cases: cell-based
Porphyromonas gingivalis = tested on: Porphyromonas gingivalis
Description: (§1) Examples (Table 1): (MIC—minimum inhibitory concentration)

Epidermophyton floccosum = tested on: Epidermophyton floccosum
Description: as §1
(§2) Examples: (MIC=minimum inhibitory concentration)

Malassezia furfur = tested on: Malassezia furfur
Description: as §1, §2

Microsporum canis = tested on: Microsporum canis
Description: as §1, §2

Microsporum gypseum = tested on: Microsporum gypseum
Description: as §1, §2

Selenomonas artemidis = tested on: Selenomonas artemidis
Description: as §1, §2

Staphylococcus aureus = tested on: Staphylococcus aureus
Description: as §1, §2

Staphylococcus mutans = tested on: Staphylococcus mutans
Description: as §1, §2

Staphylococcus sobrinus = tested on: Staphylococcus sobrinus
Description: as §1, §2

[1] = tested on: Trichophyton mentagrophytes
Description: as §1, §2

Trichophyton rubrum = tested on: Trichophyton rubrum
Description: as §1, §2

[2] = tested on: Trichophyton schoenleinii
Description: as §1, §2

Measured: MIC (minimum inhibitory concentration)

cyclodextrin [pure cyclodextrin]
>10000 ppm: all assays above
